The pIC50 is the IC50 on a negative log10 scale, so that one unit is a factor of ten.

Our source for the IC50 values is patent US20250101034A1, “COMPOSITIONS USEFUL FOR MODULATING SPLICING” (SKYHAWK THERAPEUTICS, INC., priority 2021, published 2025).

Assay [1] has as its system ATXN3 transcripts containing exon 4 (E4E5). The experiment in a line: ATXN3 quantitative splicing assay (qPCR, SK-N-MC cells). Type of assay: cell-based. The conditions noted are these: Homo sapiens, 24 h treatment, qPCR E4E5 primers/probe, read-out: ATXN3 Potency - Splicing E4E5 IC50. As for the experimental part:
Human neuroblastoma SK-N-MC cells were plated in 384-well plates at 20,000 cells/well. Twenty-four hours after plating, cells were treated with compounds for 24 h at appropriate concentrations ranging from 30 μM to 0.6 nM (0.3% DMSO). Treated cells were lysed in 15 μL of lysis buffer, and cDNA was synthesized using the Fast Advanced Cells-to-Ct kit. Two μL of each cDNA was used in qPCR reactions to confirm the exon 4 skipped transcripts of ATXN3. A second set of primers/probe E4E5 was used to detect the transcripts containing exon 4. The third set of primers/probe E8E9 was used to detect total gene level of ATXN3. The qPCR reactions were prepared in 384-well plates in 10 μL volume, using TaqMan™ Fast Advanced Master Mix with primers and probes shown in the table below. Reactions were run in a Quant Studio 6 qPCR instrument with default settings.
The primers and probes are listed below in Table 4.

In a further assay the test system is total ATXN3 protein. The assay is described as follows: ATXN3 total protein assay (MSD, SK-N-MC cells). The format is cell-based, Human. To be noted: 48 hours incubation, read-out: ATXN3 Potency - Protein IC50. As for the experimental part: Human neuroblastoma SK-N-MC cells were seeded at 10,000 cells/well in 384 well plates one day prior to compound treatment. The concentrations of compounds were tested at appropriate doses ranging from 30 μM to 0.6 nM. After incubation for 48 hours, the cells were lysed with 25 μL of lysis buffer containing protease inhibitors, and total ATXN3 protein levels were assessed by Mesoscale Discovery (MSD) assay developed with one pair of anti-ATXN3 antibodies. The capture and detect antibodies were raised in mouse and rabbit respectively. Anti-rabbit MSD-ST antibody was used for secondary antibody.
ATXN3 recombinant protein was used for standards. The readouts were captured with 35 μL of MSD read buffer and multi-array 384-well high binding plates.

pIC50: −log10 of the molar value.

As to `C[C@H](N)Cc1sc2c(NCc3cccs3)cnnc2c1Cl` [Compound 36, 6-[(2S)-2-aminopropyl]-7-chloro-N-[(thiophen-2-yl)methyl]thieno[3,2-c]pyridazin-4-amine], the pIC50 (in assay [1]; with total ATXN3 protein) was 6.30 to 7.00 in each case.
`Cc1c(CO)sc2c(NCc3cccs3)cnnc12` [Compound 114, (7-methyl-4-{[(thiophen-2-yl)methyl]amino}thieno[3,2-c]pyridazin-6-yl)methanol]: the pIC50 (in assay [1]; with total ATXN3 protein) was 4.40 to 5.00 in each case.
With `Cc1c(C[C@H](C)N)sc2c(NC(=O)c3cccs3)cnnc12` [Compound 51, N-{6-[(2S)-2-aminopropyl]-7-methylthieno[3,2-c]pyridazin-4-yl}thiophene-2-carboxamide], the pIC50 (in assay [1]; in the assay with total ATXN3 protein) was 4.40 to 5.00 each time.
Take `Cc1c(CC(C)CN)sc2c(NCc3cccs3)cnnc12` (centres unmarked) [Compound 104, 6-(3-amino-2-methylpropyl)-7-methyl-N-[(thiophen-2-yl)methyl]thieno[3,2-c]pyridazin-4-amine]: the pIC50 (in assay [1]; in the assay with total ATXN3 protein) was 4.40 to 5.00 throughout.
As to `N[C@@H](CO)Cc1sc2c(NCc3cccs3)cnnc2c1Br` [Compound 94, (2R)-2-amino-3-(7-bromo-4-{[(thiophen-2-yl)methyl]amino}thieno[3,2-c]pyridazin-6-yl)propan-1-ol], the pIC50 (in assay [1]; with total ATXN3 protein) was 6.30 to 7.00 each time.
Take `Cc1c(C[C@@H](N)C[S+](C)[O-])sc2c(NCc3ccco3)cnnc12` (stereo partly drawn) [Compound 33, 6-[(2R)-2-amino-3-methanesulfinylpropyl]-N-[(furan-2-yl)methyl]-7-methylthieno[3,2-c]pyridazin-4-amine]: the pIC50 (in assay [1]; in the assay on total ATXN3 protein) was 4.40 to 5.00 each time.
Turning to `COc1ccsc1CNc1cnnc2c(C)c(C[C@H](C)N)sc12` [Compound 74, 6-[(2S)-2-aminopropyl]-N-[(3-methoxythiophen-2-yl)methyl]-7-methylthieno[3,2-c]pyridazin-4-amine], the pIC50 (in assay [1]; in the assay with total ATXN3 protein) was 4.40 to 5.00 throughout.
On to `Cc1c(C[C@H](N)C[C@@H]2CC2(F)F)sc2c(NCc3cccs3)cnnc12` [Compound 130, 6-[(2R)-2-amino-3-[(1R)-2,2-difluorocyclopropyl]propyl]-7-methyl-N-(thiophen-2-ylmethyl)thieno[3,2-c]pyridazin-4-amine], for which the negative logarithm of the IC50 (pIC50) (in assay [1]; in the assay with total ATXN3 protein) was 5.30 to 6.30 in each case.
As to `Cc1c(C[C@H](C)N)sc2c(NCc3cncs3)cnnc12` [Compound 44, 6-[(2S)-2-aminopropyl]-7-methyl-N-[(1,3-thiazol-5-yl)methyl]thieno[3,2-c]pyridazin-4-amine], the pIC50 (in assay [1]; in the assay on total ATXN3 protein) was 4.40 to 5.00 in each case.
With `Cc1c(CC(N)CC2(F)CC2)sc2c(NCc3cccs3)cnnc12` (centres unmarked) [Compound 117, 6-[2-amino-3-(1-fluorocyclopropyl)propyl]-7-methyl-N-[(thiophen-2-yl)methyl]thieno[3,2-c]pyridazin-4-amine], the pIC50 (in assay [1]; in the assay with total ATXN3 protein) was 5.00 to 5.30 in each case.
`Cc1c(C[C@@H](N)CCO)sc2c(NCc3cccs3)cnnc12` [Compound 61, (3S)-3-amino-4-(7-methyl-4-{[(thiophen-2-yl)methyl]amino}thieno[3,2-c]pyridazin-6-yl)butan-1-ol]: the pIC50 (in assay [1]; in the assay on total ATXN3 protein) was 5.30 to 6.30 each time.
Take `Cc1c(C[C@@H](N)CO)sc2c(NCc3ccco3)cnnc12` [Compound 1, (2R)-2-amino-3-(4-{[(furan-2-yl)methyl]amino}-7-methylthieno[3,2-c]pyridazin-6-yl)propan-1-ol]: the pIC50 (in assay [1]; in the assay with total ATXN3 protein) was 5.30 to 6.30 each time.
On to `C[C@H](N)Cc1cc2nncc(NCc3cccs3)c2s1` [Compound 39, 6-[(2S)-2-aminopropyl]-N-[(thiophen-2-yl)methyl]thieno[3,2-c]pyridazin-4-amine], for which the pIC50 (in assay [1]; in the assay with total ATXN3 protein) was 5.30 to 6.30 throughout.
Consider `Cc1c(C[C@@H](N)CC2CC2)sc2c(NCc3cccs3)cnnc12` [Compound 68, 6-[(2S)-2-amino-3-cyclopropylpropyl]-7-methyl-N-[(thiophen-2-yl)methyl]thieno[3,2-c]pyridazin-4-amine], for which the negative logarithm of the IC50 (pIC50) (in assay [1]; in the assay with total ATXN3 protein) was 5.30 to 6.30 each time.
For the compound `Cc1c([C@@H](O)[C@H](C)N)sc2c(NCc3cccs3)cnnc12` (single isomer, unassigned) [Compound 42], the pIC50 (in assay [1]; in the assay with total ATXN3 protein) was 5.00 to 5.30 in each case.
On to `Cc1c(C[C@H](N)C[C@H]2CC2(F)F)sc2c(NCc3cccs3)cnnc12` [Compound 129, 6-[(2R)-2-amino-3-[(1S)-2,2-difluorocyclopropyl]propyl]-7-methyl-N-(thiophen-2-ylmethyl)thieno[3,2-c]pyridazin-4-amine], for which the figures for the pIC50 (in assay [1]; in the assay with total ATXN3 protein) were 5.00 to 5.30 and 5.30 to 6.30, respectively.
Taken in the same sequence, the figures for `Cc1c(CC#N)sc2c(NCc3cccs3)cnnc12` [Compound 98, 2-{7-methyl-4-[(thiophen-2-ylmethyl)amino]thieno[3,2-c]pyridazin-6-yl}acetonitrile] were 4.40 to 5.00 and 4.40 to 5.00.
The matching figures for `Cc1c([C@H](O)[C@H](C)N)sc2c(NCc3cccs3)cnnc12` (single isomer, unassigned) [Compound 41]: 4.40 to 5.00 and 4.40 to 5.00.
Turning to `Cc1c(C[C@H](C)N)sc2c(NCc3ccsc3)cnnc12` [Compound 8, 6-[(2S)-2-aminopropyl]-7-methyl-N-[(thiophen-3-yl)methyl]thieno[3,2-c]pyridazin-4-amine], the pIC50 (in assay [1]; in the assay with total ATXN3 protein) was 5.30 to 6.30 in each case.
As to `Cc1c(C[C@@H](N)CCF)sc2c(NCc3ccco3)cnnc12` [Compound 31, 6-[(2S)-2-amino-4-fluorobutyl]-N-[(furan-2-yl)methyl]-7-methylthieno[3,2-c]pyridazin-4-amine], the pIC50 (in assay [1]; with total ATXN3 protein) was 5.30 to 6.30 each time.
Consider `Cc1c(C[C@@H](N)CS(C)(=O)=O)sc2c(NCc3cccs3)cnnc12` [Compound 60, 6-[(2R)-2-amino-3-methanesulfonylpropyl]-7-methyl-N-(thiophen-2-ylmethyl)thieno[3,2-c]pyridazin-4-amine], for which the pIC50 (in assay [1]; with total ATXN3 protein) was 5.00 to 5.30 throughout.
In the case of `COc1c(C[C@H](C)N)sc2c(NCc3cccs3)cnnc12` [Compound 22, (S)-6-(2-aminopropyl)-7-methoxy-N-(thiophen-2-ylmethyl)thieno[3,2-c]pyridazin-4-amine], the pIC50 (in assay [1]; in the assay on total ATXN3 protein) was 5.30 to 6.30 in each case.
With `Cc1c(C[C@@H](C)N)sc2c(NCc3cccs3)cnnc12` [Compound 49, 6-[(2R)-2-aminopropyl]-7-methyl-N-[(thiophen-2-yl)methyl]thieno[3,2-c]pyridazin-4-amine], the pIC50 (in assay [1]; in the assay with total ATXN3 protein) was 4.40 to 5.00 in each case.
Turning to `C=C(C)Cc1sc2c(NCc3ccco3)cnnc2c1C` [Compound 34, N-[(furan-2-yl)methyl]-7-methyl-6-(2-methylprop-2-en-1-yl)thieno[3,2-c]pyridazin-4-amine], the pIC50 (in assay [1]; with total ATXN3 protein) was 4.40 to 5.00 each time.
Turning to `Cc1c(C[C@H](C)N)sc2c(NCc3ccco3)cnnc12` [Compound 2, 6-[(2S)-2-aminopropyl]-N-(furan-2-ylmethyl)-7-methylthieno[3,2-c]pyridazin-4-amine], the pIC50 (in assay [1]; in the assay on total ATXN3 protein) was 5.30 to 6.30 throughout.
For `Cc1c([C@H](C)[C@H](C)N)sc2c(NCc3cccs3)cnnc12` [Compound 26], the pIC50 (in assay [1]; with total ATXN3 protein) was 4.40 to 5.00 in each case.
In the case of `C[C@H](N)Cc1sc2c(NCc3cccs3)cnnc2c1Br` [Compound 35, 6-[(2S)-2-aminopropyl]-7-bromo-N-[(thiophen-2-yl)methyl]thieno[3,2-c]pyridazin-4-amine], the pIC50 (in assay [1]; in the assay with total ATXN3 protein) was 6.30 to 7.00 in each case.
As to `Cc1c(C[C@@H](N)CC#N)sc2c(NCc3cccs3)cnnc12` [Compound 27, (3S)-3-amino-4-(7-methyl-4-{[(thiophen-2-yl)methyl]amino}thieno[3,2-c]pyridazin-6-yl)butanenitrile], the pIC50 in assay [1] is 5.30 to 6.30; with total ATXN3 protein, 5.00 to 5.30.
The matching figures for `Cc1nnc2c(C)csc2c1NCc1cccs1` [Compound 57, 3,7-dimethyl-N-[(thiophen-2-yl)methyl]thieno[3,2-c]pyridazin-4-amine]: 4.40 to 5.00 and 4.40 to 5.00.
On to `C[C@H](N)C(F)(F)c1sc2c(NCc3cccs3)cnnc2c1Br` [Compound 140, 6-[(2S)-2-amino-1,1-difluoropropyl]-7-bromo-N-[(thiophen-2-yl)methyl]thieno[3,2-c]pyridazin-4-amine], for which the pIC50 (in assay [1]; in the assay on total ATXN3 protein) was 5.30 to 6.30 each time.
Turning to `Clc1csc2c(NCc3cccs3)cnnc12` [Compound 67, 7-chloro-N-[(thiophen-2-yl)methyl]thieno[3,2-c]pyridazin-4-amine], the pIC50 (in assay [1]; with total ATXN3 protein) was 4.40 to 5.00 throughout.
